Laboratory results published in the supplement of paper PMC10307832.

What was measured:
Assay in all cases: relative viability (nuclei count vs DMSO), 5 days (fraction); higher = more cells survive
[1] = tested on: NCI-H596
Outline: (§1)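 Dosing by pin tool came one day after lung cancer cell lines were seeded in 1536-well plates, using either one drug or a fixed anchor-drug dose plus five library-drug doses (not always all listed) in √10 steps. After 5 days, nuclei were counted on 4× images. Relative viability is treated-well nuclei count divided by vehicle-well nuclei count, and values are medians of duplicate plates.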

[2] = tested on: BEN
Outline: as §1

[3] = tested on: NCI-H2087
Outline: as §1

[4] = tested on: NCI-H727
Outline: as §1

[5] = tested on: NCI-H522
Outline: as §1

[6] = tested on: NCI-H3122
Outline: as §1

[7] = tested on: NCI-H23
Outline: as §1

[8] = tested on: EMC-BAC-2
Outline: as §1

[9] = tested on: NCI-H647
Outline: as §1

[10] = tested on: HARA
Outline: as §1

[11] = tested on: NCI-H838
Outline: as §1

[12] = tested on: NCI-H2126
Outline: as §1

[13] = tested on: LCLC-103H
Outline: as §1

[14] = tested on: NCI-H2023
Outline: as §1

[15] = tested on: 201T
Outline: as §1

[16] = tested on: NCI-H441
Outline: as §1

[17] = tested on: NCI-H650
Outline: as §1

[18] = tested on: LOU-NH91
Outline: as §1

[19] = tested on: NCI-H1395
Outline: as §1

[20] = tested on: NCI-H2347
Outline: as §1

[21] = tested on: NCI-H1993
Outline: as §1

## COc1nc(C)cnc1NS(=O)(=O)c1cccnc1-c1ccc(-c2nnco2)cc1 [Zibotentan] + Cc1nc(Nc2ncc(C(=O)Nc3c(C)cccc3Cl)s2)cc(N2CCN(CCO)CC2)n1 [Dasatinib] (partner 0.075 µM)
[1]; first compound 0.08 µM
  relative viability: 0.68
[1]; first compound 0.253 µM
  relative viability: 0.549
[1]; first compound 0.8 µM
  relative viability: 0.538
[1]; first compound 2.53 µM
  relative viability: 0.561
[2]; first compound 0.08 µM
  relative viability: 0.289
[2]; first compound 0.253 µM
  relative viability: 0.32
[2]; first compound 0.8 µM
  relative viability: 0.316
[2]; first compound 2.53 µM
  relative viability: 0.353
[3]; first compound 0.08 µM
  relative viability: 0.851
[3]; first compound 0.253 µM
  relative viability: 0.573
[3]; first compound 0.8 µM
  relative viability: 0.923
[3]; first compound 2.53 µM
  relative viability: 0.814
[4]; first compound 0.08 µM
  relative viability: 0.333
[4]; first compound 0.253 µM
  relative viability: 0.251
[4]; first compound 0.8 µM
  relative viability: 0.279
[4]; first compound 2.53 µM
  relative viability: 0.372
[5]; first compound 0.08 µM
  relative viability: 0.479
[5]; first compound 0.253 µM
  relative viability: 0.839
[5]; first compound 0.8 µM
  relative viability: 0.974
[5]; first compound 2.53 µM
  relative viability: 0.964
[6]; first compound 0.08 µM
  relative viability: 0.807
[6]; first compound 0.253 µM
  relative viability: 0.817
[6]; first compound 0.8 µM
  relative viability: 0.701
[6]; first compound 2.53 µM
  relative viability: 0.751
[7]; first compound 0.08 µM
  relative viability: 0.859
[7]; first compound 0.253 µM
  relative viability: 0.711
[7]; first compound 0.8 µM
  relative viability: 0.553
[7]; first compound 2.53 µM
  relative viability: 0.928
[8]; first compound 0.08 µM
  relative viability: 0.338
[8]; first compound 0.8 µM
  relative viability: 0.295
[8]; first compound 2.53 µM
  relative viability: 0.369
[9]; first compound 0.08 µM
  relative viability: 0.145
[9]; first compound 0.253 µM
  relative viability: 0.185
[9]; first compound 0.8 µM
  relative viability: 0.215
[9]; first compound 2.53 µM
  relative viability: 0.195
[10]; first compound 0.08 µM
  relative viability: 0.239
[10]; first compound 0.253 µM
  relative viability: 0.227
[10]; first compound 0.8 µM
  relative viability: 0.24
[10]; first compound 2.53 µM
  relative viability: 0.243
[11]; first compound 0.08 µM
  relative viability: 0.28
[11]; first compound 0.253 µM
  relative viability: 0.233
[11]; first compound 0.8 µM
  relative viability: 0.283
[11]; first compound 2.53 µM
  relative viability: 0.305
[12]; first compound 0.08 µM
  relative viability: 0.632
[12]; first compound 0.8 µM
  relative viability: 0.53
[12]; first compound 2.53 µM
  relative viability: 0.685
[13]; first compound 0.08 µM
  relative viability: 0.47
[13]; first compound 0.253 µM
  relative viability: 0.562
[13]; first compound 0.8 µM
  relative viability: 0.451
[13]; first compound 2.53 µM
  relative viability: 0.531
[14]; first compound 0.08 µM
  relative viability: 0.568
[14]; first compound 0.253 µM
  relative viability: 0.339
[14]; first compound 0.8 µM
  relative viability: 0.476
[14]; first compound 2.53 µM
  relative viability: 0.64
[15]; first compound 0.08 µM
  relative viability: 0.676
[15]; first compound 0.253 µM
  relative viability: 0.569
[15]; first compound 0.8 µM
  relative viability: 0.576
[15]; first compound 2.53 µM
  relative viability: 0.624
[16]; first compound 0.08 µM
  relative viability: 0.715
[16]; first compound 0.253 µM
  relative viability: 0.476
[16]; first compound 0.8 µM
  relative viability: 0.679
[16]; first compound 2.53 µM
  relative viability: 0.677
[17]; first compound 0.08 µM
  relative viability: 0.49
[17]; first compound 0.253 µM
  relative viability: 0.418
[17]; first compound 0.8 µM
  relative viability: 0.46
[17]; first compound 2.53 µM
  relative viability: 0.468
[18]; first compound 0.08 µM
  relative viability: 0.577
[18]; first compound 0.253 µM
  relative viability: 0.485
[18]; first compound 0.8 µM
  relative viability: 0.539
[18]; first compound 2.53 µM
  relative viability: 0.577
[19]; first compound 0.08 µM
  relative viability: 0.409
[19]; first compound 0.253 µM
  relative viability: 0.403
[19]; first compound 0.8 µM
  relative viability: 0.409
[19]; first compound 2.53 µM
  relative viability: 0.407
[20]; first compound 0.253 µM
  relative viability: 0.294
[20]; first compound 0.8 µM
  relative viability: 0.298
[20]; first compound 2.53 µM
  relative viability: 0.331
[21]; first compound 0.08 µM
  relative viability: 0.565
[21]; first compound 0.253 µM
  relative viability: 0.63
[21]; first compound 0.8 µM
  relative viability: 0.481
[21]; first compound 2.53 µM
  relative viability: 0.741
